Results from patent publication US20240210394A1, “MICROORGANISM CAPTURE FROM ANTIMICROBIAL-CONTAINING SOLUTION” (MOMENTUM BIOSCIENCE LIMITED, priority 2019, published 2024).

Test system: E. coli
Experiment: Blood culture time to positivity (flip time), bead rescue vs no-rescue control
Type: cell-based
Conditions: Piperacillin 96 ug/mL blood; for Flip time in Days: No bead rescue Control BC; for Time to positivity in days: 1800 cfu/5 ml

CCN1CCN(C(=O)N[C@@H](C(=O)N[C@@H]2C(=O)N3[C@@H]2SC(C)(C)[C@@H]3C(=O)O)c2ccccc2)C(=O)C1=O [Piperacillin]
Neg: Flip time in Days (50000 cfu/5 mL) | Flip time in Days (150000 cfu/5 mL) | Time to positivity in days (Control (no beads)) | Time to positivity in days (with magnetic beads in the bottle)
